Experimental data as given in PubChem BioAssay AID1745844 (Carcinogenic Potency Database (CPDB), 2022).

System: rodent lifetime carcinogenesis bioassay, tumor incidence TD50
Test: chronic cancer bioassays in animals – CPDB, compiled studies (AID 1745844)
Settings: inhaled

C=CC=C gave a TD50 (mouse, strain B6C3F1, males, site: liver, lesion: hepatocellular adenoma + hepatocellular carcinoma + neoplastic nodule, dosed 60 weeks, study length 60 weeks) of 541 mg/kg/day, a TD50 (mouse, strain B6C3F1, males, site: liver, lesion: hepatocellular adenoma + hepatocellular carcinoma + neoplastic nodule, dosed 82 weeks, study length 104 weeks) of 23.9 mg/kg/day and a TD50 (mouse, strain B6C3F1, males, site: liver, lesion: hepatocellular adenoma + hepatocellular carcinoma, dosed 13 weeks, study length 104 weeks) of 15.1 mg/kg/day. The TD50 (mouse, strain B6C3F1, males, site: liver, lesion: hepatocellular adenoma + hepatocellular carcinoma, dosed 26 weeks, study length 104 weeks) was 23.8 mg/kg/day, the TD50 (mouse, strain B6C3F1, males, site: liver, lesion: hepatocellular adenoma + hepatocellular carcinoma, dosed 40 weeks, study length 104 weeks) was 16.8 mg/kg/day and the TD50 (mouse, strain B6C3F1, males, site: liver, lesion: hepatocellular adenoma + hepatocellular carcinoma, dosed 52 weeks, study length 104 weeks) was 14.6 mg/kg/day. The TD50 (mouse, strain B6C3F1, males, site: liver, lesion: hepatocellular adenoma + hepatocellular carcinoma, dosed 82 weeks, study length 104 weeks) was 23.9 mg/kg/day, the TD50 (mouse, strain B6C3F1, males, site: liver, lesion: hepatocellular adenoma, dosed 13 weeks, study length 104 weeks) was 17.9 mg/kg/day and the TD50 (mouse, strain B6C3F1, males, site: liver, lesion: hepatocellular adenoma, dosed 26 weeks, study length 104 weeks) was 27.8 mg/kg/day. The TD50 (mouse, strain B6C3F1, males, site: liver, lesion: hepatocellular adenoma, dosed 40 weeks, study length 104 weeks) was 18 mg/kg/day, the TD50 (mouse, strain B6C3F1, males, site: liver, lesion: hepatocellular adenoma, dosed 52 weeks, study length 104 weeks) was 15.8 mg/kg/day and the TD50 (mouse, strain B6C3F1, males, site: liver, lesion: hepatocellular adenoma, dosed 82 weeks, study length 104 weeks) was 34.1 mg/kg/day. It also gave a TD50 (mouse, strain B6C3F1, males, site: liver, lesion: hepatocellular carcinoma, dosed 13 weeks, study length 104 weeks) of 23.4 mg/kg/day, a TD50 (mouse, strain B6C3F1, males, site: liver, lesion: hepatocellular carcinoma, dosed 26 weeks, study length 104 weeks) of 60 mg/kg/day and a TD50 (mouse, strain B6C3F1, males, site: liver, lesion: hepatocellular carcinoma, dosed 40 weeks, study length 104 weeks) of 62 mg/kg/day. It also gave a TD50 (mouse, strain B6C3F1, males, site: liver, lesion: hepatocellular carcinoma, dosed 52 weeks, study length 104 weeks) of 47 mg/kg/day, a TD50 (mouse, strain B6C3F1, males, site: liver, lesion: hepatocellular carcinoma, dosed 82 weeks, study length 104 weeks) of 34.4 mg/kg/day and a TD50 (mouse, strain B6C3F1, males, site: lung, lesion: alveolar/bronchiolar adenoma + alveolar/bronchiolar carcinoma + adenocarcinoma, dosed 13 weeks, study length 104 weeks) of 8.59 mg/kg/day. It also gave a TD50 (mouse, strain B6C3F1, males, site: lung, lesion: alveolar/bronchiolar adenoma + alveolar/bronchiolar carcinoma + adenocarcinoma, dosed 52 weeks, study length 104 weeks) of 7.17 mg/kg/day, a TD50 (mouse, strain B6C3F1, males, site: lung, lesion: alveolar/bronchiolar adenoma + alveolar/bronchiolar carcinoma + adenocarcinoma, dosed 82 weeks, study length 104 weeks) of 19.2 mg/kg/day and a TD50 (mouse, strain B6C3F1, males, site: lung, lesion: alveolar/bronchiolar adenoma + alveolar/bronchiolar carcinoma, dosed 13 weeks, study length 104 weeks) of 8.59 mg/kg/day. It also gave a TD50 (mouse, strain B6C3F1, males, site: lung, lesion: alveolar/bronchiolar adenoma + alveolar/bronchiolar carcinoma, dosed 26 weeks, study length 104 weeks) of 13.4 mg/kg/day, a TD50 (mouse, strain B6C3F1, males, site: lung, lesion: alveolar/bronchiolar adenoma + alveolar/bronchiolar carcinoma, dosed 40 weeks, study length 104 weeks) of 11 mg/kg/day and a TD50 (mouse, strain B6C3F1, males, site: lung, lesion: alveolar/bronchiolar adenoma + alveolar/bronchiolar carcinoma, dosed 52 weeks, study length 104 weeks) of 7.25 mg/kg/day. It also gave a TD50 (mouse, strain B6C3F1, males, site: lung, lesion: alveolar/bronchiolar adenoma + alveolar/bronchiolar carcinoma, dosed 60 weeks, study length 60 weeks) of 65.9 mg/kg/day, a TD50 (mouse, strain B6C3F1, males, site: lung, lesion: alveolar/bronchiolar adenoma + alveolar/bronchiolar carcinoma, dosed 82 weeks, study length 104 weeks) of 19.6 mg/kg/day and a TD50 (mouse, strain B6C3F1, males, site: lung, lesion: alveolar/bronchiolar adenoma, dosed 13 weeks, study length 104 weeks) of 17.1 mg/kg/day. It also gave a TD50 (mouse, strain B6C3F1, males, site: lung, lesion: alveolar/bronchiolar adenoma, dosed 26 weeks, study length 104 weeks) of 17.3 mg/kg/day, a TD50 (mouse, strain B6C3F1, males, site: lung, lesion: alveolar/bronchiolar adenoma, dosed 40 weeks, study length 104 weeks) of 18.1 mg/kg/day and a TD50 (mouse, strain B6C3F1, males, site: lung, lesion: alveolar/bronchiolar adenoma, dosed 52 weeks, study length 104 weeks) of 9.13 mg/kg/day. The TD50 (mouse, strain B6C3F1, males, site: lung, lesion: alveolar/bronchiolar adenoma, dosed 60 weeks, study length 60 weeks) was 96.9 mg/kg/day, the TD50 (mouse, strain B6C3F1, males, site: lung, lesion: alveolar/bronchiolar adenoma, dosed 82 weeks, study length 104 weeks) was 33.2 mg/kg/day and the TD50 (mouse, strain B6C3F1, males, site: lung, lesion: alveolar/bronchiolar carcinoma + adenocarcinoma, dosed 13 weeks, study length 104 weeks) was 14.1 mg/kg/day. It also gave a TD50 (mouse, strain B6C3F1, males, site: lung, lesion: alveolar/bronchiolar carcinoma + adenocarcinoma, dosed 52 weeks, study length 104 weeks) of 13 mg/kg/day, a TD50 (mouse, strain B6C3F1, males, site: lung, lesion: alveolar/bronchiolar carcinoma + adenocarcinoma, dosed 82 weeks, study length 104 weeks) of 32.4 mg/kg/day and a TD50 (mouse, strain B6C3F1, males, site: lung, lesion: alveolar/bronchiolar carcinoma, dosed 26 weeks, study length 104 weeks) of 17.8 mg/kg/day. The TD50 (mouse, strain B6C3F1, males, site: lung, lesion: alveolar/bronchiolar carcinoma, dosed 40 weeks, study length 104 weeks) was 16.3 mg/kg/day, the TD50 (mouse, strain B6C3F1, males, site: lung, lesion: alveolar/bronchiolar carcinoma, dosed 60 weeks, study length 60 weeks) was 312 mg/kg/day and the TD50 (mouse, strain B6C3F1, males, site: preputial gland, lesion: adenoma + carcinoma + carcinoma, bilateral, dosed 13 weeks, study length 104 weeks) was 119 mg/kg/day. It also gave a TD50 (mouse, strain B6C3F1, males, site: preputial gland, lesion: adenoma + carcinoma + carcinoma, bilateral, dosed 26 weeks, study length 104 weeks) of 27.1 mg/kg/day, a TD50 (mouse, strain B6C3F1, males, site: preputial gland, lesion: adenoma + carcinoma + carcinoma, bilateral, dosed 40 weeks, study length 104 weeks) of 351 mg/kg/day and a TD50 (mouse, strain B6C3F1, males, site: preputial gland, lesion: carcinoma + carcinoma, bilateral, dosed 13 weeks, study length 104 weeks) of 167 mg/kg/day. It also gave a TD50 (mouse, strain B6C3F1, males, site: preputial gland, lesion: carcinoma + carcinoma, bilateral, dosed 26 weeks, study length 104 weeks) of 27.1 mg/kg/day, a TD50 (mouse, strain B6C3F1, males, site: preputial gland, lesion: carcinoma + carcinoma, bilateral, dosed 40 weeks, study length 104 weeks) of 351 mg/kg/day and a TD50 (mouse, strain B6C3F1, males, site: preputial gland, lesion: carcinoma + carcinoma, bilateral, dosed 52 weeks, study length 104 weeks) of 20.1 mg/kg/day. For the same molecule, the TD50 (mouse, strain B6C3F1, males, site: preputial gland, lesion: carcinoma, NOS + squamous-cell carcinoma, dosed 60 weeks, study length 60 weeks) was 403 mg/kg/day, the TD50 (mouse, strain B6C3F1, males, site: preputial gland, lesion: carcinoma, dosed 82 weeks, study length 104 weeks) was 384 mg/kg/day and the TD50 (mouse, strain B6C3F1, males, site: preputial gland, lesion: squamous-cell carcinoma, dosed 60 weeks, study length 60 weeks) was 538 mg/kg/day. For the same molecule, the TD50 (mouse, strain B6C3F1, males, site: subcutaneous tissue, lesion: hemangiosarcoma, dosed 82 weeks, study length 104 weeks) was 666 mg/kg/day, the TD50 (rat, strain Charles River CD (Sprague-Dawley), females, site: mammary gland, lesion: benign tumor, dosed 105 weeks, study length 105 weeks) was 182 mg/kg/day and the TD50 (rat, strain Charles River CD (Sprague-Dawley), females, site: mammary gland, lesion: malignant tumor, dosed 105 weeks, study length 105 weeks) was 7720 mg/kg/day. The TD50 (rat, strain Charles River CD (Sprague-Dawley), females, site: mammary gland, lesion: several types, types named in the paper, dosed 105 weeks, study length 105 weeks) was 133 mg/kg/day, the TD50 (rat, strain Charles River CD (Sprague-Dawley), females, site: thyroid gland, lesion: follicular-cell adenoma, dosed 105 weeks, study length 105 weeks) was 8270 mg/kg/day and the TD50 (rat, strain Charles River CD (Sprague-Dawley), males, site: any site (literature study), lesion: one or several types, types not named, dosed 111 weeks, study length 111 weeks) was 1470 mg/kg/day. The TD50 (rat, strain Charles River CD (Sprague-Dawley), males, site: pancreas, lesion: exocrine adenoma, dosed 111 weeks, study length 111 weeks) was 9310 mg/kg/day and the TD50 (rat, strain Charles River CD (Sprague-Dawley), males, site: testis, lesion: Leydig-cell tumor, dosed 111 weeks, study length 111 weeks) was 7550 mg/kg/day.
